Test results as given in patent publication US20240132522A1, “HETEROCYCLIC COMPOUNDS AND METHODS OF USE THEREOF” (1cBio, Inc., priority 2022, published 2024).
Counter-ions that a name gives are not always drawn.

Columns and labels:
[1] = tested on: DLD-1 wild-type colorectal adenocarcinoma cells; experiment: Cell viability assay (Cell Titer-Glo), DLD-1 wild-type; assay type: cell-based; details: Homo sapiens, DLD-1, 168 h, 7 days, 50 cells/well
From the text: (§1) In some embodiments, the biological assay measures the effects that compounds of the present disclosure may have on the viability of cells, e.g., the viability of cancer cells. In some embodiments, DLD-1 wild-type and DLD-1 BRCA2(−/−) colorectal adenocarcinoma cells, an isogenic pair of cell lines differing in the presence and absence, respectively, of both BRCA2 alleles, are used to measure the effect of the disclosed compounds on the viability of cancer cells.
(§2) In some embodiments, the cells are harvested during the logarithmic growth period, counted, and seeded at a specified count in the wells of a 96- or 384-well cell culture plate. In some embodiments, after seeding, the cells are incubated, e.g., at 37° C., 5% CO2 overnight. In some embodiments, the cells are treated with compounds, e.g., with serially diluted test compounds at 8-11 concentrations within a desired concentration range, e.g., from 1 nM-10 μM, for the generation of dose-response curves. In some embodiments, the plate is further incubated, e.g., for another 3-7 days in a humidified incubator at 37° C. and 5% CO2. In some embodiments, cell viability is assessed by luminescence measurement after addition of Cell Titer-Glo reagent (Promega, Madison, Wis.) according to the manufacturer's instructions. In some embodiments, cell viability IC50 values are calculated using XLFit, equation 201: y=A+((B−A)/(1+((x/C)^D))), where A=bottom, B=top, C=IC50, and D=slope. In some embodiments, the effects of the test compounds on the viability of other cell lines such as MDA-MB-436, MDA-MB-231, SUM149PT, HCC1395, and UWB1.289 are determined in an analogous method.
(§3) Compounds of the present disclosure were tested for their effects on the viability of cancer cells. DLD-1 wild-type and DLD-1 BRCA2(−/−) colorectal adenocarcinoma cells, an isogenic pair of cell lines differing in the presence and absence, respectively, of both BRCA2 alleles, were used. The cells were harvested during the logarithmic growth period, counted, and seeded at 50 cells/well for DLD-1 wild-type and 200 cells/well for DLD-1 BRCA2(−/−) in a 384-well cell culture plate. After seeding, cells were incubated at 37° C., 5% CO2 overnight. Cells were treated with serially diluted test compounds at 10 concentrations from 1.5 nM-30 μM) for generation of dose response curves. The plate was further incubated for another 7 days in a humidified incubator at 37° C. and 5% CO2. Cell viability was assessed by luminescence measurement after addition of Cell Titer-Glo reagent (Promega, Madison, Wis.) according to the manufacturer's instructions. Cell viability IC50 values were calculated using XLFit, equation 201: y=A+((B−A)/(1+((x/C)^D))), where A=bottom, B=top, C=IC50, and D=slope. IC50 values are shown in Table B and are presented in ranges, in which “+++”<300 nM, 300 nM≤“++”<3000 nM, and “+”≥3000 nM. Effects of the test compounds on the viability of other cell lines such as MDA-MB-436, MDA-MB-231, SUM149PT, HCC1395, and UWB1.289 are determined in an analogous method.

recombinant human PARP2 = recombinant human PARP2 (Homo sapiens, UniProt Q9UGN5); experiment: PARP2 fluorescence polarization binding assay; details: binding IC50, GST-tagged PARP2 20 nM, PARPi-FL probe 3 nM, 4 h at RT
Chain of recombinant human PARP2 (Q9UGN5 whole entry): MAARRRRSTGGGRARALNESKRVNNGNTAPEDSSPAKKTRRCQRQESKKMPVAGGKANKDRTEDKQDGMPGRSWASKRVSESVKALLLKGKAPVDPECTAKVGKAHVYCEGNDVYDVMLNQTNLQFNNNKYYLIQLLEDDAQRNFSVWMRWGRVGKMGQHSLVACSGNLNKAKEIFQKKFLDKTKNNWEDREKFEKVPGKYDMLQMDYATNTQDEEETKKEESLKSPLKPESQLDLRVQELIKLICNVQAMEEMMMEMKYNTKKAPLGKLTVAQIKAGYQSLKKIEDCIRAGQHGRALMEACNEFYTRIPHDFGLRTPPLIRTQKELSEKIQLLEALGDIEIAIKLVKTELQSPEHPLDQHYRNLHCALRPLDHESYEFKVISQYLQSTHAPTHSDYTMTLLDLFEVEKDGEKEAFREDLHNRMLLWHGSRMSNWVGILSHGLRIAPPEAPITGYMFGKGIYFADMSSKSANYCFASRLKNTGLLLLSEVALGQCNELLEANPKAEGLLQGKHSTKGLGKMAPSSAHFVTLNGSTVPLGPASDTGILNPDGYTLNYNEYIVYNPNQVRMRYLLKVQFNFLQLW
Description: In some embodiments, the biological assay measures PARP-2 binding by way of fluorescence polarization measurements. In some embodiments, binding of a test compound to recombinant human PARP-2 reduces the amount of binding of a fluorescent probe, and consequently reduces the detected level of fluorescence polarization. […] In some embodiments, the serial dilutions, e.g., 100 nL of serial dilution, 90 nL of serial dilution, 80 nL of serial dilution, 70 nL of serial dilution, 60 nL of serial dilution, 50 nL of serial dilution, 30 nL of serial dilution, 20 nL of serial dilution, or 10 nL of serial dilution, are added to a multi-welled plate, e.g., a 1536-well plate, a 384-well plate, or a 96-well plate. In some embodiments, PARP-2, e.g., GST-tagged PARP-2, is diluted in assay buffer, e.g., 50 μL of assay buffer, 40 μL of assay buffer, e.g., 30 μL of assay buffer, 20 μL of assay buffer, 10 μL of assay buffer, or 5 μL of assay buffer, and is added to the plate. In some embodiments, the plate is centrifuged, e.g., at 1000 rpm for 1 min, and incubated, e.g., incubated for 30 minutes at room temperature (RT). In some embodiments, a fluorescent probe, e.g., 10 μL of 6 nM PARPi-FL (TOCRIS, Cat #6461), is diluted in an assay buffer and is added to the plate. […] In some embodiments, the plate is centrifuged, e.g., at 1000 rpm for 1 minute, and the assay plate is incubated, e.g., for 4 h at RT. In some embodiments, the samples in each well are read using a plate reader, e.g., an Envision instrument using excitation=480 nm, and emission wavelength=FITC FP-P pol 535 nm & FITC FP-S pol 535 nm). […] In some embodiments, binding IC50 values are calculated using XLFit (equation 201: […])^D))), where A=bottom, B=top, C=IC50, and D=slope) with a floating top and bottom for curves. Compounds of the present disclosure were tested in a PARP2 fluorescence polarization binding assay at Pharmaron (Beijing, P.R. China). In this biochemical assay, binding of test compound to recombinant human PARP2 reduces the amount of binding of a fluorescent probe, and consequently reduces the detected level of fluorescence polarization. Test compound stock solutions were prepared in DMSO and then serially diluted into 10 concentrations by 3-fold dilution in a 384-well plate using a TECAN EVO200. […] Samples in each well were read using an Envision instrument (Perkin-Elmer; Ex=480 nm Em=FITC FP-P pol 535 nm & FITC FP-S pol 535 nm). […] Binding IC50 values were calculated using XLFit (equation 201: […])^D))), where A=bottom, B=top, C=IC50, and D=slope) with a floating top and bottom for curves.

[2] = tested on: DLD-1 BRCA2(−/−) colorectal adenocarcinoma cells; experiment: Cell viability assay (Cell Titer-Glo), DLD-1 BRCA2(−/−); assay type: cell-based; details: Homo sapiens, DLD-1, 168 h, 7 days, 200 cells/well
From the text: as §1, §2, §3

IC50 [1] [µM] | IC50 (recombinant human PARP2) [µM] | IC50 [2] [µM] | Structure (SMILES)
≥ 3 | ≥ 3 | ≥ 3 | CCc1cc2ncc(CN3CCCN(c4ccc(C(=O)NC)nc4)CC3)cc2[nH]c1=O [Compound No. 6, 5-(4-((7-ethyl-6-oxo-5H-1,5-naphthyridin-3-yl)methyl)-1,4-diazepan-1-yl)-N-methylpyridine-2-carboxamide]
≥ 3 | ≥ 3 | ≥ 3 | CCc1cc2ncc(CN3CC4(C3)CN(c3ccc(C(=O)NC)nc3)C4)cc2[nH]c1=O [Compound No. 9, 5-(6-((7-ethyl-6-oxo-5,6-dihydro-1,5-naphthyridin-3-yl)methyl)-2,6-diazaspiro[3.3]heptan-2-yl)-N-methylpicolinamide formate]
≥ 3 | ≥ 3 | ≥ 3 | CCc1cc2ncc(CNC3CC(Nc4ccc(C(=O)NC)nc4)C3)cc2[nH]c1=O (stereo not drawn) [Compound No. 29, 5-((3-(((7-ethyl-6-oxo-5,6-dihydro-1,5-naphthyridin-3-yl)methyl)amino)cyclobutyl)amino)-N-methylpicolinamide]

Structure (SMILES) | IC50 [1] [µM] | IC50 (recombinant human PARP2) [µM] | IC50 [2] [µM]
CCc1cc2ncc(CN3CC4CN(c5ccc(C(=O)NC)nc5)CC4C3)cc2[nH]c1=O (stereo not drawn) [Compound No. 7, 5-(5-((7-ethyl-6-oxo-5,6-dihydro-1,5-naphthyridin-3-yl)methyl)hexahydropyrrolo[3,4-c]pyrrol-2(1H)-yl)-N-methylpicolinamide] | ≥ 3 | ≥ 3 | 0.3 to 3
